Source: publication PMC6273488, “Synthesis and Biological Evaluation of Benzochromenopyrimidinones as Cholinesterase Inhibitors and Potent Antioxidant, Non-Hepatotoxic Agents for Alzheimer’s Disease” (Molecules, 2016)
Several values for one entry are separate records, joined by “and”; a condition that tells them apart may be missing. Identical values can stand only once. Entries after “also recorded” stand apart in the source; their conditions may differ.

Key:
[1] = Oxygen radical absorbance capacity by fluorescence (ORAC-FL); settings: mean ± SD
Procedure: Trolox was used as standard, fluorescein as fluorescent probe and 2,2′-azobis(2-amidinopropane) dihydrochloride (AAPH) as the peroxyl radical source. Ferulic acid was used as a positive control.
The antioxidant power of BCPOs was determined following the ORAC-FL method using fluorescein as the fluorescent probe. (±)-6-Hydroxy-2,5,7,8-tetramethylchromane-2-carboxylic acid (Trolox), fluorescein (FL) and AAPH were bought from Sigma-Aldrich (Saint Louis, MO, USA). A Varioskan Flash plate reader with built-in injectors (Thermo Scientific, Waltham, MA, USA) was used. The final volume reaction mixture was 200 µL and the reaction was carried out at 37 °C in 75 mM phosphate buffer (pH 7.4). The tested compounds and Trolox standard were dissolved in DMSO to 10 mM and further diluted in phosphate buffer. The final concentrations were 0.1–1 µM for the tested compounds and 1–8 µM for Trolox standard. The blank was composed of 120 µL of FL, 60 µL of AAPH and 20 µL of phosphate buffer (pH = 7.4) and was added in each assay. The antioxidant (20 µL) and fluorescein (FL, 120 µL, final concentration of 70 nM) were incubated in a black 96-well microplate Nunc, purchazed from Thermo Fisher Scientific, Ecublens, Switzerland) for 15 min at 37 °C. Then, AAPH, 60 µL, final concentration of 12 mM) solution was added quickly using the built-in injector. […] The microplate was automatically shaken prior to each reading. All the experiments were made in triplicate and at least three different assays were performed for each sample.
Using MS Excel software, regression equations were extrapolated by plotting the net AUC against the antioxidant concentration. The ORAC values were then obtained by dividing the slope of the latter curve between the slope of the Trolox curve obtained in the same assay. Final ORAC values were expressed as Trolox equivalents. Data are expressed as mean ± SD.

[2] = in vitro; type: cell-based; settings: human, HepG2 cells, 24 h, MTT, read-out: In vitro toxicity (% cell viability); for viability at 24 h, 1 µM: HepG2, 1 µM; for viability at 24 h, 3 µM: HepG2, 3 µM; for viability at 24 h, 10 µM: HepG2, 10 µM; for viability at 24 h, 30 µM: HepG2, 30 µM; for viability at 24 h, 100 µM: HepG2, 100 µM; for viability at 24 h, 300 µM: HepG2, 300 µM; for viability at 24 h, 1 mM: HepG2, 1 mM
Procedure: (§1) A prerequisite for any effective lead drug is to keep its cytotoxicity at the lowest possible level. In this regard, we submitted the four most promising compounds (3Ab, 3Bb, 3Cb and 3Ba) to an in vitro toxicologic evaluation (MTT assay) using human hepatocellular carcinoma cell line (HepG2) which represents a good probe to evaluate hepatotoxic effects. […].
(§2) HepG2 cells were purchased from American Type Culture Collection. The cells were cultured in Eagle’s Minimum Essential Medium (Ozyme, France) supplemented with 10% fetal bovine serum, 1X non-essential amino acids, 100 units/mL penicillin and […] streptomycin (Dutscher, Brumath, France). Cultures were kept under a CO2/air (5%/95%) humidified atmosphere at 37 °C. Prior to the experiment, cells were seeded in 96-well culture plates at a density of 0.1 × 10^6 cells per well. After 24 h of incubation, the culture medium was refreshed and 100 µL of the test compounds or DMSO (0.1%) were added. […] For the MTT assay, after 24 h of treatment, cells were incubated with 50 µL MTT (0.5 mg/mL, Sigma Aldrich, city, France) at 37 °C for 2 h. Plates were centrifuged, MTT was removed and 100 µL DMSO was distributed per well. The absorbance at 570 nm was measured using microplate reader (brand). Cell viability was expressed as percentage of cell viability compared to controls (DMSO, 0.1%).

[3] = tested on: HepG2 cells; assay: in vitro; type: cell-based; settings: HepG2, MTT, concentrations up to 1000 μM
Procedure: as §1, §2

[4] = biological target: T1, human recombinant AChE (hAChE) (Homo sapiens, UniProt P22303); assay: Kinetic characterization of hAChE inhibition (Lineweaver-Burk); type: biochemical
T1 construct: purchased Sigma-Aldrich
T1 sequence (P22303 32-614): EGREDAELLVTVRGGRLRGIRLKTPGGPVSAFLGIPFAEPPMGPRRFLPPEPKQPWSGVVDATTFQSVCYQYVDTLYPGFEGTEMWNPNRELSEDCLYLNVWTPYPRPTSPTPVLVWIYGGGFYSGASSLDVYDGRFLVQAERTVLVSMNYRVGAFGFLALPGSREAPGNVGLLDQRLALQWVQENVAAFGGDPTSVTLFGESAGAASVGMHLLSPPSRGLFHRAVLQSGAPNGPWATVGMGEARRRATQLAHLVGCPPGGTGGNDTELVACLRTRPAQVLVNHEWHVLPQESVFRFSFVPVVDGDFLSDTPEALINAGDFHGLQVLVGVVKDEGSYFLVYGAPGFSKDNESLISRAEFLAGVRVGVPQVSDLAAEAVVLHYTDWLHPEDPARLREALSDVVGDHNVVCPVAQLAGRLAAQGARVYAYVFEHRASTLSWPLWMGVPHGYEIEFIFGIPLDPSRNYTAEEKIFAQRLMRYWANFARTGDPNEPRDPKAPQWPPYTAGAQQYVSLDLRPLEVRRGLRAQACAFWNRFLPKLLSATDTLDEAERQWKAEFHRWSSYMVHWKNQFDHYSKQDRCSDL
Procedure: To get insight into the mode of inhibition, the kinetic mechanism of hAChE inhibition by compound 3Bb was investigated through classical Lineweaver-Burk double reciprocal plots.
To estimate the type of inhibition of hAChE, we performed the same experimental protocol as reported for hAChE inhibition. […]. The stock solution of ATC (0.5 mM in a well) was prepared in demineralized water and diluted before use to obtain 0.4, 0.3, 0.2, 0.1 and 0.067 mM substrate solutions. The double reciprocal plots were analysed by a weighted least square procedure that assumed the variance of V to be constant. Each experiment was performed in triplicate. To confirm the mode of inhibition, Cornish-Bowden plots were obtained by plotting S/V (substrate/velocity ratio) versus the inhibitor concentration. Data analysis was performed with GraphPad Prism 5. Inhibition constant (Ki) values were determined by re-plotting slopes from the Lineweaver-Burk plot versus the inhibitor concentration where Ki was determined as the intersect of the line with the x-axis.

[5] = Solubility in DMSO (footnote remark); type: physicochemical; settings: DMSO at 10 mM and 1 mM

**Q.** With `O=c1c2c(nc3n1CCCC3)Oc1ccc3ccccc3c1C2c1ccccc1` (stereo not drawn) [3Ab, 15-Phenyl-10,11,12,15-tetrahydro-9H-benzo[5,6]chromeno[2,3-d]pyrido[1,2-a]pyrimidin-14-one] as the molecule, how does the ORAC [1] read?
**A.** The ORAC was 2.3 ± 0.3 Trolox equivalents.

**Q.** What about the viability at 24 h, 1 µM [2] of the same molecule?
**A.** The viability at 24 h, 1 µM was 99.3 ± 4%.

**Q.** What about the viability at 24 h, 3 µM [2] of the same molecule?
**A.** The viability at 24 h, 3 µM was 95.3 ± 2.3%.

**Q.** What about the viability at 24 h, 10 µM [2] of the same molecule?
**A.** Its viability at 24 h, 10 µM is 98.5 ± 2.5%.

**Q.** What about the viability at 24 h, 30 µM [2] of the same molecule?
**A.** Its viability at 24 h, 30 µM is 91.5 ± 4.5%.

**Q.** What about the viability at 24 h, 100 µM [2] of the same molecule?
**A.** The viability at 24 h, 100 µM was 101 ± 3.1%.

**Q.** And the viability at 24 h, 300 µM [2]?
**A.** Its viability at 24 h, 300 µM is 110 ± 5.5%.

**Q.** What about the viability at 24 h, 1 mM [2] of the same molecule?
**A.** Its viability at 24 h, 1 mM is 110 ± 4.4%.

**Q.** And the “hepatotoxicity on HepG2 cells (in words)” value [3]?
**A.** The value was “non-hepatotoxic”.

**Q.** What does the source list for `COc1cccc(C2c3c(nc4n(c3=O)CCC4)Oc3ccc4ccccc4c32)c1` (stereo not drawn) [3Ba, 14-(3′Methoxyphenyl)-10,11-dihydro-14H-benzo[5,6]chromeno[2,3-d]pyrrolo[1,2-a]pyrimidin-13(9H)-one]?
**A.** ORAC [1]: 3.4 ± 0.2 Trolox equivalents; viability at 24 h, 1 µM [2]: 109 ± 2%; viability at 24 h, 3 µM [2]: 108 ± 4.8%; viability at 24 h, 10 µM [2]: 106 ± 3.5%; viability at 24 h, 30 µM [2]: 99.2 ± 4.2%; viability at 24 h, 100 µM [2]: 97 ± 5.4%; viability at 24 h, 300 µM [2]: 108 ± 2.8%; viability at 24 h, 1 mM [2]: 120 ± 6.8%; hepatotoxicity on HepG2 cells (in words) [3]: non-hepatotoxic

**Q.** What does the source list for `COc1cccc(C2c3c(nc4n(c3=O)CCCC4)Oc3ccc4ccccc4c32)c1` (stereo not drawn) [3Bb, 15-(3′-Methoxyphenyl)-10,11,12,15-tetrahydro-9H-benzo[5,6]chromeno[2,3-d]pyrido[1,2-a]pyrimidin-14-one]?
**A.** mode of hAChE inhibition ([4]; Lineweaver-Burk double reciprocal plot): mixed-type inhibition; also recorded: mixed-type hAChE inhibitor; Ki ([4]; estimated from Lineweaver-Burk replots, read-out: Ki (dissociation constant for the enzyme-inhibitor complex)): 380 nM; ORAC [1]: 4.7 Trolox equivalents and 4.7 ± 0.2 Trolox equivalents; viability at 24 h, 1 µM [2]: 108 ± 2.4%; viability at 24 h, 3 µM [2]: 111 ± 8.7%; viability at 24 h, 10 µM [2]: 105 ± 4.2%; viability at 24 h, 30 µM [2]: 104 ± 5%; viability at 24 h, 100 µM [2]: 112 ± 2.3%; viability at 24 h, 300 µM [2]: 118 ± 7.3%; viability at 24 h, 1 mM [2]: 128 ± 5%; hepatotoxicity on HepG2 cells (in words) [3]: non-hepatotoxic

**Q.** With `Cc1ccc(C2c3c(nc4n(c3=O)CCCC4)Oc3ccc4ccccc4c32)cc1` (stereo not drawn) [3Cb, 15-(4′-Methylphenyl)-10,11,12,15-tetrahydro-9H-benzo[5,6]chromeno[2,3-d]pyrido[1,2-a]pyrimidin-14-one] as the molecule, how does the ORAC [1] read?
**A.** Its ORAC is 3.9 ± 0.3 Trolox equivalents.

**Q.** And the viability at 24 h, 1 µM [2]?
**A.** Its viability at 24 h, 1 µM is 106 ± 7%.

**Q.** What about the viability at 24 h, 3 µM [2] of the same molecule?
**A.** Its viability at 24 h, 3 µM is 103 ± 10.8%.

**Q.** And the viability at 24 h, 10 µM [2]?
**A.** The viability at 24 h, 10 µM was 110 ± 9.1%.

**Q.** And the viability at 24 h, 30 µM [2]?
**A.** Its viability at 24 h, 30 µM is 113 ± 5.8%.

**Q.** What about the viability at 24 h, 100 µM [2] of the same molecule?
**A.** Its viability at 24 h, 100 µM is 103 ± 5.7%.

**Q.** What about the viability at 24 h, 300 µM [2] of the same molecule?
**A.** The viability at 24 h, 300 µM was 113 ± 5.2%.

**Q.** And the viability at 24 h, 1 mM [2]?
**A.** The viability at 24 h, 1 mM was 110 ± 8%.

**Q.** What about the “hepatotoxicity on HepG2 cells (in words)” value [3] of the same molecule?
**A.** The value was “non-hepatotoxic”.

**Q.** And the “solubility in DMSO (in words)” value [5]?
**A.** Its value is “poor solubility in DMSO at 10 mM and 1 mM”.
